Experimental data reported in US9409952B2, “Peptide-compound cyclization method” (Chugai Seiyaku Kabushiki Kaisha, priority 2011, dated 2016).
Starred links: 1 amine or outer side, 2 acyl side, 3 side chain; linkers in the order of their positions; H or OH if unused. Positions of bridges follow the written chain, without caps; N, C: chain ends. Non-standard residues stand in square brackets, D forms with d. Residues, ends and D or L forms follow the SMILES beside them. ξ: configuration not given here. *: point of attachment. Cys(O)(CH2CO) = O=C([C@H](C[S+]([O-])CC(=O)[*:3])N[*:1])[*:2]; Bip = N[C@@H](Cc1ccc(-c2ccccc2)cc1)C(=O)O; NMeF = CN[C@@H](Cc1ccccc1)C(=O)O; NMeI = CC[C@H](C)[C@H](NC)C(=O)O; NMeL = CN[C@@H](CC(C)C)C(=O)O; NMeA = CN[C@@H](C)C(=O)O; Piperidide = C1CCN(*)CC1; {Puro} = puromycin; ξC = NC(CS)C(=O)O; Sar = CNCC(=O)O; tBu = CC(C)(C)*

Experiments:
[1] = Metabolic stability in mouse hepatic microsome; type: in vitro ADME; conditions: for microsomal CLint at 1 uM: male, liver microsomes, pH 7.4; for Hepatic Microsome CLh, int (Mouse) In the absence of NADPH: without NADPH; for Mouse Hepatic Microsome CLh, int: Table 9, thioether versus sulfoxide
Protocol: (§1) The obtained compound was metabolically reacted at a concentration of 2 uM with mouse serum (male/female mixed, Valley Biomedical, USA) (adjusted to pH 7.4 with 33.5 mM HEPES buffer) for two hours. Deproteinization treatment with acetonitrile was provided over time, the amount of the remaining unchanged compound was analyzed using LC/MS, and the metabolic half-life (t1/2) was calculated. A microsome solution prepared at 0.5 mg protein/mL from mouse hepatic microsome and small intestinal microsome (male, XENOTECH, USA) using 100 mM phosphate buffer (pH 7.4) was metabolically reacted with the compound at a concentration of 1 uM for 30 minutes in the presence or absence of NADPH. Deproteinization treatment with acetonitrile was provided over time, the amount of the remaining unchanged compound was analyzed using LC/MS, and the hepatic-intrinsic clearance (CLh, int) and the small intestinal-intrinsic clearance (CLg, int) were calculated (Table 7). Such peptides were sufficiently slowly metabolized by hydrolysis with peptidases or the like in mouse sera and microsomes, contrary to peptides composed of natural amino acids having low lipophilicity.
(§2) Metabolic stability tests were carried out in the same manner as shown in 2-1.

[2] = Metabolic stability in mouse small intestinal microsome; type: in vitro ADME; conditions: for Intestinal Microsome CLg, int Mouse: Table 8, mouse; for oxidative metabolic rate relative to the parent thioether, small intestinal microsomes: compared with Compound P-112
Protocol: as §1, §2

[3] = Metabolic stability in human hepatic microsome; type: in vitro ADME; conditions: for microsomal CLint at 1 uM: pH 7.4, Hepatic Microsome CLhint Human
[4] = Serum stability test in mouse serum; type: in vitro ADME; conditions: both sexes, pH 7.4, two hours, read-out: Serum stability t1/2 (Mouse)
Protocol: as §1

[5] = biological target: T1, soluble human IL-6R (IL-6R) (Homo sapiens, UniProt P08887); assay: IL-6/IL-6R interaction by electrochemiluminescence immunoassay (protein denaturation by desulfurization solution); type: binding; conditions: 25 mM HEPES-K pH 7.6, 200 mM TCEP, 250 mM VA-044, 10 mM Cys, room temperature, 50 minutes
T1 sequence (P08887 20-355 limits assumed): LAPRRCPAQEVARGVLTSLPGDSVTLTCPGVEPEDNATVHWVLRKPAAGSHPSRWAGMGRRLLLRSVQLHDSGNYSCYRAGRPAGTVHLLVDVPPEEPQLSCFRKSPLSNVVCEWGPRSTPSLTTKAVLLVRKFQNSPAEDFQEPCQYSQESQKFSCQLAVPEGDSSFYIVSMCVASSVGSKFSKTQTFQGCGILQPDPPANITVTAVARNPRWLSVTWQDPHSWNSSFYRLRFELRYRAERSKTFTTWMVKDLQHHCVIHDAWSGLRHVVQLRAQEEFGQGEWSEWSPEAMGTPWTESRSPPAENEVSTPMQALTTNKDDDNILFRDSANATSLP
Protocol: Protein denaturation by a desulfurization reaction solution was evaluated (FIG. 34). As a model system, the effect of the desulfurization reaction condition on IL-6R was evaluated by detecting interaction between IL-6 and IL-6R using electrochemiluminescence immunoassay. First, 750 ng of anti-IL-6R antibody clone No. 17506 (R&D biosystems) was applied to a MSD Multi-array 384-well plate (MSD) and incubated at 4° C. overnight so that the antibody was immobilized on to the plate. The plate was washed with 80 μl of PBST three times to remove the unbound antibody, and blocking was then carried out with 2% skimmed milk for 1 hour. The blocking agent was washed away from the plate with 80 μl of PBST three times, after which 10 μl of 25 nM soluble human IL-6R (IL-6R) was added and the plate was shaken at room temperature for 50 minutes. The plate was washed with 80 μl of PBST three times, a desulfurization reaction solution (25 mM HEPES-K (pH 7.6), 200 mM TCEP, 250 mM VA-044 and 10 mM Cys) was added and the plate was shaken at room temperature for 50 minutes. The plate was washed with 80 μl of PBST three times, 10 μl of human IL-6-BAP (500 nM) was added and the plate was shaken at room temperature for 50 minutes. […] The plate was washed with 80 μl of PBST three times, and 35 μl of 2× read buffer (MSD, R92SC-3) was added, followed by measurement with SECTOR Imager 2400 (MSD) (FIG. 34).

[6] = 2 h, pH 7.1
[7] = 0.5 mg protein/mL, 1 uM, 30 minutes
[8] = mouse, 0.5 mg protein/mL, 1 uM, 30 minutes, with NADPH, read-out: Hepatic Microsome CLh, int (Mouse) In the presence of NADPH

Compound | Intestinal Microsome CLg, int Mouse [2] [ul/min/mg Protein] | microsomal CLint at 1 uM ([3]; human, microsomes) [µL/min/mg] | half-life at 2 uM [4] [h] | Hepatic Microsome CLh, int (Mouse) In the absence of NADPH [1, 7] [ul/min/mg Protein] | Hepatic Microsome CLhint Mouse ([1]; Table 8, mouse) [ul/min/mg Protein] | Mouse Hepatic Microsome CLh, int [1] [ul/min/mg Protein] | microsomal CLint at 1 uM [1, 8] [µL/min/mg] | Hepatic microsome CLhint (Human) In the absence of NADPH [3] [ul/min/mg Protein] | Hepatic microsome CLhint (Human) In the presence of NADPH [3] [ul/min/mg Protein] | other results
CC[C@H](C)[C@H]1C(=O)N[C@H](C(=O)N2CCCCC2)C[S+]([O-])CC(=O)N(C)[C@@H](C)C(=O)N(C)[C@@H](Cc2ccccc2)C(=O)N(C)[C@@H](CC(C)C)C(=O)N[C@@H]([C@@H](C)O)C(=O)N(C)CC(=O)N(C)[C@@H](CC(C)C)C(=O)N[C@@H](COC(C)(C)C)C(=O)N1C (stereo partly drawn) [Compound P-114, (5S,8S,11S,14S,20S,23S,26S,29R)-8-benzyl-23-(tert-butoxymethyl)-26-((S)-sec-butyl)-14-((R)-1-hydroxyethyl)-11,20-diisobutyl-4,5,7,10,16,19,25-heptamethyl-29-(piperidine-1-carbonyl)-1-thia-4,7,10,13,16,19,22,25,28-nonaazacyclotriacontane-3,6,9,12,15,18,21,24,27-nonone 1-oxide] ([NMeA][NMeF][NMeL]T[Sar][NMeL]S(tBu)[NMeI][Cys(O)(CH2CO)]-Piperidide; lactam N-9) | 9.1 | 35.3 | – | – | – | – | – | – | – | oxidative metabolic rate relative to the parent thioether, mouse hepatic microsomes ([1]; compared with Compound P-112): 0.6 times; microsomal CLint at 1 uM ([1]; Table 8, mouse, read-out: Hepatic Microsome CLhint Mouse): 33.7 µL/min/mg; oxidative metabolic rate relative to the parent thioether, small intestinal microsomes [2]: 0.2 times; oxidative metabolic rate relative to the parent thioether, human hepatic microsomes [3]: about 0.3 times
CC[C@H](C)[C@H]1C(=O)N[C@H](C(=O)N2CCCCC2)CSCC(=O)N(C)[C@@H](Cc2ccccc2)C(=O)N(C)[C@@H](CC(C)C)C(=O)N[C@@H]([C@@H](C)O)C(=O)N(C)CC(=O)N(C)[C@@H](CC(C)C)C(=O)N[C@@H](COC(C)(C)C)C(=O)N1C [Compound P-103, Ac*-MePhe-MeLeu-Thr-MeGly-MeLeu-Ser(tBu)-MeIle-Cys*-piperidine] ({CH2CO}-[NMeF][NMeL]T[Sar][NMeL]S(tBu)[NMeI]C-Piperidide; thioether N-8) | 66.3 | 221 | > 60 | 11.1 | 63.0 | 63 | 63 | 3 | 221 | –
CC(C)C[C@H]1C(=O)N[C@@H](COC(C)(C)C)C(=O)N[C@H](C(=O)N2CCCCC2)CSCC(=O)N(C)[C@@H](C)C(=O)N(C)[C@@H](Cc2ccccc2)C(=O)N(C)[C@@H](CC(C)C)C(=O)N[C@@H]([C@@H](C)O)C(=O)N(C)CC(=O)N1C [Compound P-102, Ac*-MeAla-MePhe-MeLeu-Thr-MeGly-MeLeu-Ser(tBu)-Cys*-piperidine] ({CH2CO}-[NMeA][NMeF][NMeL]T[Sar][NMeL]S(tBu)C-Piperidide; thioether N-8) | 79.0 | 124 | > 60 | 0 | 55.1 | – | 55.1 | 3 | 124 | –
OC1CSSCC1O (stereo not drawn) [oxidized DTT] | – | – | – | – | – | – | – | – | – | effect on interaction between IL-6R and IL-6 [5]: restores the interaction between IL-6R and IL-6
CC[C@H](C)[C@H]1C(=O)N[C@H](C(=O)N2CCCCC2)CS(=O)(=O)CC(=O)N(C)[C@@H](C)C(=O)N(C)[C@@H](Cc2ccccc2)C(=O)N(C)[C@@H](CC(C)C)C(=O)N[C@@H]([C@@H](C)O)C(=O)N(C)CC(=O)N(C)[C@@H](CC(C)C)C(=O)N[C@@H](COC(C)(C)C)C(=O)N1C [Compound P-115, (5S,8S,11S,14S,20S,23S,26S,29R)-8-benzyl-23-(tert-butoxymethyl)-26-((S)-sec-butyl)-14-((R)-1-hydroxyethyl)-11,20-diisobutyl-4,5,7,10,16,19,25-heptamethyl-29-(piperidine-1-carbonyl)-1-thia-4,7,10,13,16,19,22,25,28-nonaazacyclotriacontane-3,6,9,12,15,18,21,24,27-nonone 1,1-dioxide] | 21.8 | – | – | – | 42.1 | 12.1 | – | – | – | oxidative metabolic rate relative to the parent thioether, small intestinal microsomes [2]: about 0.5 times; Hepatic Microsome CLhint Human ([3]; human, microsomes, 1 uM, pH 7.4): 61.6 ul/min/mg Protein
CC[C@H](C)[C@H]1C(=O)N[C@H](C(=O)N2CCCCC2)CSCC(=O)N(C)[C@@H](C)C(=O)N(C)[C@@H](Cc2ccccc2)C(=O)N(C)[C@@H](CC(C)C)C(=O)N[C@@H]([C@@H](C)O)C(=O)N(C)CC(=O)N(C)[C@@H](CC(C)C)C(=O)N[C@@H](COC(C)(C)C)C(=O)N1C [Compound P-109, Ac*-MeAla-MePhe-MeLeu-Thr-MeGly-MeLeu-Ser(tBu)-MeIle-Cys*-piperidine] ({CH2CO}-[NMeA][NMeF][NMeL]T[Sar][NMeL]S(tBu)[NMeI]C-Piperidide; thioether N-9) | 45.8 | 158 | > 60 | 10.3 | 57.4 | – | 57.4 | 11 | 158 | –
CC[C@H](C)[C@H]1C(=O)NC(C(=O)N2CCCCC2)CSCC(=O)N(C)[C@@H](Cc2ccccc2)C(=O)N(C)[C@@H](C)C(=O)N(C)[C@@H](Cc2ccccc2)C(=O)N(C)[C@@H](CC(C)C)C(=O)N[C@@H]([C@@H](C)O)C(=O)N(C)CC(=O)N(C)[C@@H](CC(C)C)C(=O)N[C@@H](COC(C)(C)C)C(=O)N1C (stereo partly drawn) [Compound P-112, Ac*-MePhe-MeAla-MePhe-MeLeu-Thr-MeGly-MeLeu-Ser(tBu)-MeIle-Cys*-piperidine] ({CH2CO}-[NMeF][NMeA][NMeF][NMeL]T[Sar][NMeL]S(tBu)[NMeI][ξC]-Piperidide; thioether N-10) | 25.9 | 118 | > 60 | 17.9 | 30.4 | 30.4 | 30.4 | – | – | –
5′-AGCUUAGUCA-puromycin-3′ (3' {Puro}, sugars by position and backbone not given here) [Compound RP-1] | – | – | – | – | – | – | – | – | – | amount of remaining RNA compound under desulfurization reaction condition [6]: not changed
CC[C@H](C)[C@H]1C(=O)N[C@@H](Cc2ccc(-c3ccccc3)cc2)C(=O)N[C@H](C(=O)N2CCCCC2)CSCC(=O)N(C)[C@@H](CC(C)C)C(=O)N[C@@H]([C@@H](C)O)C(=O)N(C)CC(=O)N(C)[C@@H](CC(C)C)C(=O)N[C@@H](CO)C(=O)N1C [Compound P-104, Ac*-MeLeu-Thr-MeGly-MeLeu-Ser-MeIle-Bip-Cys*-piperidine] ({CH2CO}-[NMeL]T[Sar][NMeL]S[NMeI][Bip]C-Piperidide; thioether N-8) | – | – | > 60 | 6.9 | – | – | 106 | – | – | –
